In experiment [1] the target is T1, NOX2 (Homo sapiens, UniProt P04839).
T1 construct: endogenous in cells; host or cells: freshly isolated human blood-derived granulocytes
T1 sequence (P04839 2-570 limits assumed): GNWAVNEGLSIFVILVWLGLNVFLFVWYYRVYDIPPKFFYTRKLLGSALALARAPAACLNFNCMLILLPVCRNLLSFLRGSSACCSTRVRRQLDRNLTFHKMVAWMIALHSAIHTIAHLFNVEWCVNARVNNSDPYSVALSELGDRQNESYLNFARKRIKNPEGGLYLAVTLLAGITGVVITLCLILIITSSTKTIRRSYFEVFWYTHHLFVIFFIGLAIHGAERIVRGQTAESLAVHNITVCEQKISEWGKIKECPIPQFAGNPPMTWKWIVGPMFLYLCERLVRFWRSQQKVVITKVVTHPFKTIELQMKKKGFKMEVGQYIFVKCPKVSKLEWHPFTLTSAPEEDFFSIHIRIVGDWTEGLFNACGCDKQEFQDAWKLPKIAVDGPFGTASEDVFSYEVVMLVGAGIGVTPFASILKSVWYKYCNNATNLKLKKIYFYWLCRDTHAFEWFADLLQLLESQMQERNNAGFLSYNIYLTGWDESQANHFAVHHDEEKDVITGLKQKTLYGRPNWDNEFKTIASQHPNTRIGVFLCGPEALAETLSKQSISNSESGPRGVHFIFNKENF
T1 sequence (P13498 2-195 partner limits assumed): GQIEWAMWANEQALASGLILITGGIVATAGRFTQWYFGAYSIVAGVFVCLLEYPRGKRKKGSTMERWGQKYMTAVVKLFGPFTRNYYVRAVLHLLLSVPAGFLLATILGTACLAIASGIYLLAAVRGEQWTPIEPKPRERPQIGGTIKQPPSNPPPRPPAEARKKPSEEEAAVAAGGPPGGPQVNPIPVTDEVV
As to the kind of experiment: NOX2 inhibition assay (L-012), human blood-derived granulocytes. The conditions noted are these: fMLP/PMA stimulated. Type of experiment: cell-based. On the procedure: Evaluation of the NOX4 inhibitors on NOX2 activity is assessed in human blood-derived granulocytes.
Afterwards, freshly isolated granulocytes are added to the wells containing the compounds in assay buffer and incubated for 1 h at 37° C. Next, a solution of Nformylmethionine-leucyl-phenylalanine (fMLP; 730 nM), phorbol myristate acetate (PMA, 100 nM) (stimuli of ROS production) and L-012 (200 μM, ROS indicator) is added to the wells and the cells are incubated for additional 30 mins at 37° C. Afterwards luminescence is measured in a SpectraMax M5 microplate reader.

Experiment [2] deals with T2, human NOX4 (hNOX4) (Homo sapiens, UniProt Q9NPH5).
T2 sequence (Q9NPH5 1-578): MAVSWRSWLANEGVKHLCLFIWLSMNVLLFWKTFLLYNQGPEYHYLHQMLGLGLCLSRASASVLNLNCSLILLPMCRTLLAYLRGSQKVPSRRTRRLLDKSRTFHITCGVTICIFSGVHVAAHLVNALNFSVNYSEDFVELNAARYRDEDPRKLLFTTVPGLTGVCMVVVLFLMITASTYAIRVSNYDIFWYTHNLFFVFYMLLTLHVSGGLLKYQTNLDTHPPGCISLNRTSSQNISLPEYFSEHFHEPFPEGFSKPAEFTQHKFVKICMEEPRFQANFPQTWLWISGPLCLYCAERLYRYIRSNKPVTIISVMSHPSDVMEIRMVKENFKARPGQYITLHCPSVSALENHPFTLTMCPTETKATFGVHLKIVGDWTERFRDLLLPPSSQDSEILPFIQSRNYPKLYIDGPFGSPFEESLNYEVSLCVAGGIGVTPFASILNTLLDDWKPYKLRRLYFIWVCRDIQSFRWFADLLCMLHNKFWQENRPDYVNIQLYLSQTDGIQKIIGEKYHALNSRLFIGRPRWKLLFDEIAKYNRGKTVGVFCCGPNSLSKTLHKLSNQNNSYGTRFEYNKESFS
T2 sequence (P13498 2-195 partner limits assumed): T1 sequence (P13498 2-195 partner limits assumed)
As to the kind of experiment: cell-based.
Procedure: The synthetic gene phNOX4_DNA3_1_Zeo (Accession: AAF68973) is assembled from synthetic oligonucleotides and/or PCR products. The fragment is cloned into pcDNA3.1_Zeo_A011 using NheI and XhoI cloning sites. The plasmid DNA is purified from transformed bacteria and its concentration is determined by UV spectroscopy. The final construct is verified by sequencing. The plasmid is transfected via electroporation (Amaxa electroporation device) in combination with Nucleofector Kit V. Selection of NOX4 overexpressing genes is achieved using selection antibiotic Zeocin.
The inhibitory activity of the example compounds of the invention is determined using the following procedure:
Cells are cultured in the Dulbecco's Modified Eagle Medium (DMEM) media containing 4.5 g/L glucose supplemented with 10% fetal calf serum and 250 μg/ml Zeocin in an incubator at 37° C. with 5% CO2. For the assay, cells are seeded in 384 well plates.
After incubation Lumigen HyPerBlu™ is added and cells are incubated for additional 30 min at 24° C. in a humidified incubator. Next, luminescence is measured using an Envision Multimode Plate reader to determine levels of produced H2O2 in the wells.

A value given as a limit tells only on which side of the number the result lay.

What is called IC50 is the concentration at which inhibition is half-maximal. A high value points to a need for much substance. As for `O=c1c2scnc2nc(SCc2c(F)cc(F)cc2Cl)n1-c1cnc(O)c(F)c1` [Example 41], the IC50 in experiment [1] was found to be 39300 nM; in experiment [2], 60 nM.

With `O=c1c2scnc2nc(SCc2ccc(C(F)(F)F)cc2F)n1-c1cnc(O)c(F)c1` [Example 42], the half-maximal inhibitory concentration (IC50) in experiment [1] was > 100000 nM; in experiment [2], 62 nM.

Regarding `Cc1cc(F)cc(C)c1CSc1nc2ncsc2c(=O)n1-c1cnc(O)c(F)c1` [Example 43], the IC50 is > 100000 nM in experiment [1] and 63 nM in experiment [2].

Regarding `O=c1c2scnc2nc(SCc2ccc(F)cc2Br)n1-c1cnc(O)c(F)c1` [Example 44], the IC50 is > 100000 nM in experiment [1] and 63 nM in experiment [2].

Consider `O=c1c2scnc2nc(SCc2c(F)ccc(F)c2F)n1-c1cnc(O)c(F)c1` [Example 45], for which the IC50 in experiment [1] is > 100000 nM; in experiment [2], 113 nM.

Regarding `O=c1c2scnc2nc(SCc2ccc(C(F)(F)F)cc2Cl)n1-c1cnc(O)c(F)c1` [Example 46], the half-inhibitory concentration (IC50) was > 100000 nM in experiment [1] and 130 nM in experiment [2].

In the case of `N#Cc1cc(-n2c(SCc3c(F)cc(F)cc3F)nc3ncsc3c2=O)cnc1O` [Example 47, 2-Hydroxy-5-(7-oxo-5-((2,4,6-trifluorobenzyl)thio)thiazolo[4,5-d]pyrimidin-6(7H)-yl)-nicotinonitrile], the IC50 is > 30000 nM in experiment [1] and 426 nM in experiment [2].

In the case of `O=c1c2scnc2nc(SCc2c(F)cc(F)cc2F)n1-c1cnc(O)c(Cl)c1` [Example 48, 6-(5-Chloro-6-hydroxypyridin-3-yl)-5-((2,4,6-trifluorobenzyl)thio)thiazolo[4,5-d]pyri-midin-7(6H)-one], the values for the IC50 in experiment [1] and in experiment [2] were > 100000 nM and 201 nM, respectively.

With `O=c1c2scnc2nc(SCc2c(F)cc(F)cc2F)n1-c1cnc(O)cc1F` [Example 49, 6-(4-Fluoro-6-hydroxypyridin-3-yl)-5-((2,4,6-trifluorobenzyl)thio)thiazolo[4,5-d]pyrimidin-7(6H)-one], the IC50 is > 100000 nM in experiment [1] and 45 nM in experiment [2].

Turning to `O=c1c2scnc2nc(SCc2c(F)cc(F)cc2F)n1-c1ccc(O)nc1F` [Example 50, 6-(2-Fluoro-6-hydroxypyridin-3-yl)-5-((2,4,6-trifluorobenzyl)thio)thiazolo[4,5-d]-pyrimidin-7(6H)-one], the IC50 in experiment [1] is > 100000 nM; in experiment [2], 47 nM.

As to `O=c1c2scnc2nc(SCc2c(F)cc(F)cc2F)n1-c1cc(F)c(O)nc1F` [Example 51, 6-(2,5-Difluoro-6-hydroxypyridin-3-yl)-5-((2,4,6-trifluorobenzyl)thio)thiazolo[4,5-d]-pyrimidin-7(6H)-one], the figures for the IC50 in experiment [1] and in experiment [2] were > 100000 nM and 51 nM, respectively.

With `O=c1c2scnc2nc(SCc2c(F)cc(F)cc2F)n1-c1cnc(O)c(F)c1F` [Example 52, 6-(4,5-Difluoro-6-hydroxypyridin-3-yl)-5-((2,4,6-trifluorobenzyl)thio)thiazolo[4,5-d]-pyrimidin-7(6H)-one], the IC50 is > 100000 nM in experiment [1] and 52 nM in experiment [2].

Regarding `O=c1c2scnc2nc(SCc2ccc(Cl)cc2F)n1-c1cnc(O)nc1` [Example 53, 5-((4-Chloro-2-fluorobenzyl)thio)-6-(2-hydroxypyrimidin-5-yl)thiazolo[4,5-d]pyrimidin-7(6H)-one], the half-maximal inhibitory concentration (IC50) in experiment [1] was > 100000 nM; in experiment [2] it was 116 nM.

As for `Cc1cc(Cl)ccc1CSc1nc2ncsc2c(=O)n1-c1cnc(O)nc1` [Example 54], the values for the IC50 in experiment [1] and in experiment [2] were > 100000 nM and 111 nM, respectively.

Take `Cc1cc(F)cc(C)c1CSc1nc2ncsc2c(=O)n1-c1cnc(O)nc1` [Example 55]: the IC50 in experiment [1] was > 100000 nM; in experiment [2], 116 nM.

With `O=c1c2scnc2nc(SCc2ccc(Cl)cc2)n1-c1cnc(O)nc1` [Example 56], the IC50 is > 100000 nM in experiment [1] and 153 nM in experiment [2].

Turning to `O=c1c2scnc2nc(SCc2ccc(C(F)(F)F)cc2F)n1-c1cnc(O)nc1` [Example 57], the IC50 in experiment [1] is > 100000 nM; in experiment [2], 124 nM.

On to `Cc1cc(F)ccc1CSc1nc2ncsc2c(=O)n1-c1cnc(O)nc1` [Example 58], for which the half-maximal inhibitory concentration (IC50) in experiment [1] is > 100000 nM; in experiment [2], 140 nM.

For the molecule `O=c1c2scnc2nc(SCc2c(F)cc(F)cc2F)n1-c1cnc(O)nc1` [Example 59], the IC50 in experiment [1] is > 100000 nM; in experiment [2], 206 nM.

In the case of `O=c1c2scnc2nc(SCc2ccc(C(F)(F)F)cc2)n1-c1cnc(O)nc1` [Example 60], the results for the IC50 in experiment [1] and in experiment [2] were > 100000 nM and 237 nM, respectively.

`O=c1c2scnc2nc(SCc2ccc(Cl)cc2F)n1-c1ccc(O)nn1` [Example 61, 5-((4-Chloro-2-fluorobenzyl)thio)-6-(6-hydroxypyridazin-3-yl)thiazolo[4,5-d]pyrimidin-7(6H)-one]: the IC50 was > 100000 nM in experiment [1] and 103 nM in experiment [2].

Regarding `Cc1cc(Cl)ccc1CSc1nc2ncsc2c(=O)n1-c1ccc(O)nn1` [Example 62], the IC50 was > 100000 nM in experiment [1] and 127 nM in experiment [2].

Regarding `Cc1cc(F)cc(C)c1CSc1nc2ncsc2c(=O)n1-c1ccc(O)nn1` [Example 63], the IC50 in experiment [1] came out at 46000 nM; in experiment [2] it was 126 nM.

For `O=c1c2scnc2nc(SCc2ccc(Cl)cc2)n1-c1ccc(O)nn1` [Example 64], the results for the IC50 in experiment [1] and in experiment [2] were > 100000 nM and 133 nM, respectively.

Regarding `O=c1c2scnc2nc(SCc2ccc(C(F)(F)F)cc2F)n1-c1ccc(O)nn1` [Example 65], the IC50 was > 100000 nM in experiment [1] and 137 nM in experiment [2].

As to `O=c1c2scnc2nc(SCc2ccc(C(F)(F)F)cc2)n1-c1ccc(O)nn1` [Example 66], the values for the IC50 in experiment [1] and in experiment [2] were > 100000 nM and 137 nM, respectively.

Take `O=c1c2scnc2nc(SCc2c(F)cc(F)cc2F)n1-c1ccc(O)nn1` [Example 67]: the IC50 was > 30000 nM in experiment [1] and 165 nM in experiment [2].

`Cc1cc(F)ccc1CSc1nc2ncsc2c(=O)n1-c1ccc(O)nn1` [Example 68]: the IC50 is > 100000 nM in experiment [1] and 143 nM in experiment [2].

For the molecule `O=c1c2scnc2nc(SCc2c(F)cc(F)cc2F)n1-c1cnc(O)cn1` [Example 69, 6-(5-Hydroxypyrazin-2-yl)-5-((2,4,6-trifluorobenzyl)thio)thiazolo[4,5-d]pyrimidin-7(6H)-one], the IC50 in experiment [1] is > 100000 nM; in experiment [2] it was 65 nM.

The record behind these values is patent US20240327429A1, “[1,3]Thiazolo[4,5-d]-pyrimidon-7-ones as inhibitors of NOX4” (Boehringer Ingelheim International GmbH, priority 2023, published 2024).
